For 26 compounds, IC50 results are on record in patent US10301280B2 (Plexxikon Inc., priority 2012, dated 2019).

SMILES strings stand for the structures. pIC50: −log10 of the molar value.

One assay deals with c-kit mutant D816V (Homo sapiens (Human), UniProt P10721, D816V/DEL694-753). Briefly: c-Kit mutant D816V biochemical assay (AlphaScreen). The conditions noted are these: c-kit D816V biochemical inhibitory activity. The method, then:
The c-kit mutant D816V (or kinase domain thereof) is an active kinase in AlphaScreen. IC50 values are determined with respect to inhibition of c-Kit mutant D816V kinase activity, where inhibition of phosphorylation of a peptide substrate is measured as a function of compound concentration. Compounds to be tested were dissolved in DMSO to a concentration of 20 mM. These were diluted 30 μl into 120 μl of DMSO (4 mM) and 1 μl was added to an assay plate. These were then serially diluted 1:3 (50 μl to 100 μl DMSO) for a total of 8 points. Plates were prepared such that each kinase reaction is 20 μl in 1× kinase buffer (25 mM HEPES, pH 7.2, 8 mM MgCl2, 2 mM MnCl2, 50 mM NaCl, 0.01% Brij, 1 mM DTT, 0.01% BSA), 5% DMSO and 10 μM ATP. Substrate was 30 nM biotin-(E4Y)10 (EMD Millipore, Cat#12-440). C-kit mutant D816V kinase was at 0.75 ng per sample. After incubation of the kinase reaction for 30 minutes at room temperature, 5 μl of donor beads (Streptavidin coated beads (Perkin Elmer Life Science) final concentration 7.5 μg/ml) in stop buffer (25 mM Hepes pH 7.5, 100 mM EDTA, 0.01% BSA) was added, the sample was mixed and incubated for 20 minutes at room temperature before adding 5 μl of acceptor beads (PY20 coated beads (Perkin Elmer Life Science) final concentration 7.5 ug/ml) in stop buffer. The samples were incubated for 60 minutes at room temperature and the signal per well was read on EnVision reader. Phosphorylated substrate results in binding of the PY20 antibody and association of the donor and acceptor beads such that signal correlates with kinase activity. The signal vs. compound concentration was used to determine the IC50.
Recombinant c-kit mutant D816V (residues 551-934, kinase insertion domain residues 694-753 deleted) with a 6x-histidine N-terminal tag was expressed in E. coli Arctic Express (DE3) RIL (Stratagene). Cells were grown in Terrific Broth (TB) media to an OD600 of 0.6 at 37° C. at which temperature was reduced to 10° C., protein was induced with 1.0 mM IPTG for 18 hours and harvested by centrifugation at 8000×g for 20 minutes. Cells were re-suspended in 0.1M KPO4 pH 8.0, 250 mM NaCl, 10% Glycerol, 0.75% NP-40, 25 mM Imidazole, 5 mM BME with 0.2 mg/ml Lysosyme, 2.0 mM PMSF, 25 μg/ml DNAse I, incubated in ice for 30 minutes and lyzed with a cell disruptor (MicroFluidics). The lysate was clarified by centrifugation at 20,000×g for 2 hours. The protein was captured with Talon resin (Clontech). Contaminating proteins were washed off with 25 mM Tris-HCl pH 8.3, 250 mM NaCl, 15% Glycerol, 1% Triton X-100, and protein eluted using 100 mM EDTA. The protein was further purified using Gel Filtration column 26/600 Superdex 200 (GE) in 50 mM Tris-HCl, pH 8.0, 250 mM NaCl, 15% Glycerol, 5 mM BME. The protein was aliquoted and flash-frozen in liquid Nitrogen.

The subject of assay [1] is BaF3-FL KIT D816V or BaF3-FL KIT V560G/D816V cell line. The assay is described as follows: Cell-based assays of c-Kit mutant kinase activity (cell growth, ATPlite). The conditions noted are these: at least one of the c-kit cell assays of Example 26. In short, it runs like this: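 BaF3 cells dependent on full-length human KIT (D816V or V560G/D816V) seeded at 1×10^4 cells/well in RPMI with 10% FBS. Eight-point 1:3 dilutions from 10 μM top final (0.2% DMSO), 3 days at 37° C., 5% CO2. ATPlite luminescence gave IC50.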

Sequence of c-kit mutant D816V (P10721 other isoform, or with tags, fused parts or gaps D816V/del 694-753): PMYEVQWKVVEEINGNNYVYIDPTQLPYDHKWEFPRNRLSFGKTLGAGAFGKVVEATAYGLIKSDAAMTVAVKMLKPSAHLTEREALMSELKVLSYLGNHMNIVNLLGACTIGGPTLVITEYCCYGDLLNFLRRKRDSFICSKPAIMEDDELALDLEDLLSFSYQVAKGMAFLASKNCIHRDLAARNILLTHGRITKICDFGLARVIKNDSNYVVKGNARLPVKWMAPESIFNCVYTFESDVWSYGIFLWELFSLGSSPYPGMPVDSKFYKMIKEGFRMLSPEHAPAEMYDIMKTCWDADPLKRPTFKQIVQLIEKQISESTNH

For `O=C(Nc1cnc2[nH]c(-c3ccc(F)cc3)cc2c1)c1n[nH]c2c1CCC2` [P-2056, N-[2-(4-fluorophenyl)-1H-pyrrolo[2,3-b]pyridin-5-yl]-1,4,5,6-tetrahydrocyclopenta[c]pyrazole-3-carboxamide], the IC50 against c-kit mutant D816V is 0.0001 to 1 µM. Moreover, the pIC50 in assay [1] is above 5.00.

Take `Cc1ccc(-c2cc3cc(NC(=O)c4[nH]nc(C)c4C)cnc3[nH]2)cn1` [P-2123, 3,4-dimethyl-N-[2-(6-methyl-3-pyridyl)-1H-pyrrolo[2,3-b]pyridin-5-yl]-1H-pyrazole-5-carboxamide]: the IC50 against c-kit mutant D816V was in the range of 0.0001 to 1 µM. In assay [1], this compound gave a negative-log IC50 (pIC50) above 5.00.

The compound `Cc1[nH]nc(NC(=O)c2cnc3[nH]c(-c4ccccc4)cc3c2)c1C` [P-2071] yielded an IC50 against c-kit mutant D816V of 10 to 200 µM.

With `Cc1[nH]nc(C(=O)Nc2cnc3cc(-c4ccc(F)cc4)nn3c2)c1C` [P-2072, N-[2-(4-fluorophenyl)pyrazolo[1,5-a]pyrimidin-6-yl]-4,5-dimethyl-1H-pyrazole-3-carboxamide], the IC50 at c-kit mutant D816V lay in the range of 1 to 10 µM. In assay [1], this compound showed a pIC50 above 5.00.

At c-kit mutant D816V, `O=C(Nc1cnc2[nH]c(-c3ccccc3)cc2c1)c1cc(C2CC2)n[nH]1` [P-2009, 3-cyclopropyl-N-(2-phenyl-1H-pyrrolo[2,3-b]pyridin-5-yl)-1H-pyrazole-5-carboxamide] showed a half-maximal inhibitory concentration (IC50) of 10 to 200 µM.

As for `Cc1n[nH]c(C(=O)Nc2cnc3[nH]c(-c4ccccc4)nc3c2)c1C` [P-2145, 3,4-dimethyl-N-(2-phenyl-3H-imidazo[4,5-b]pyridin-6-yl)-1H-pyrazole-5-carboxamide], the IC50 on c-kit mutant D816V was 0.0001 to 1 µM. In assay [1], this compound gave a pIC50 above 5.00.

`Cc1n[nH]c(C(=O)Nc2cnc3[nH]c(-c4ccc(F)cc4)cc3c2)c1F` [P-2275, 4-fluoro-N-[2-(4-fluorophenyl)-1H-pyrrolo[2,3-b]pyridin-5-yl]-3-methyl-1H-pyrazole-5-carboxamide] yielded an IC50 at c-kit mutant D816V of 0.0001 to 1 µM. The pIC50 in assay [1] is above 5.00.

At c-kit mutant D816V, `Cc1cc(C(=O)Nc2cnc3[nH]c(-c4ccccc4)nc3c2)[nH]n1` [P-2151, 3-methyl-N-(2-phenyl-3H-imidazo[4,5-b]pyridin-6-yl)-1H-pyrazole-5-carboxamide] came in with an IC50 of 1 to 10 µM. For the same compound, in assay [1], the pIC50 was above 5.00.

In turn, `NC(=O)c1cccc(NC(=O)c2cnc3[nH]c(-c4ccccc4)cc3c2)c1` [P-2003, N-(3-carbamoylphenyl)-2-phenyl-1H-pyrrolo[2,3-b]pyridine-5-carboxamide] came in with an IC50 against c-kit mutant D816V of 10 to 200 µM.

In turn, `Cc1n[nH]c(C(=O)Nc2cnc3[nH]c(-c4cnc(N5CCOCC5)nc4)cc3c2)c1C` [P-2158, 3,4-dimethyl-N-[2-(2-morpholinopyrimidin-5-yl)-1H-pyrrolo[2,3-b]pyridin-5-yl]-1H-pyrazole-5-carboxamide] returned an IC50 against c-kit mutant D816V of 0.0001 to 1 µM. In addition, in assay [1], the negative-log IC50 (pIC50) was above 5.00.

With `Cc1n[nH]c(C(=O)Nc2cnc3[nH]c(N4CCCC4)cc3c2)c1C` [P-2115, 3,4-dimethyl-N-(2-pyrrolidin-1-yl-1H-pyrrolo[2,3-b]pyridin-5-yl)-1H-pyrazole-5-carboxamide], the half-inhibitory concentration (IC50) on c-kit mutant D816V is 1 to 10 µM. For the same compound, in assay [1], the pIC50 was above 5.00.

At c-kit mutant D816V, `Cc1n[nH]c(C(=O)Nc2cnc3[nH]c(-c4cccc(F)c4C)cc3c2)c1C` [P-2146, N-[2-(3-fluoro-2-methyl-phenyl)-1H-pyrrolo[2,3-b]pyridin-5-yl]-3,4-dimethyl-1H-pyrazole-5-carboxamide] showed an IC50 of 0.0001 to 1 µM. The compound also gave a pIC50 in assay [1] above 5.00.

On c-kit mutant D816V, `Cc1n[nH]c(C(=O)Nc2cnc3[nH]c(-c4cnc(C(C)C)nc4)cc3c2)c1C` [P-2154, N-[2-(2-isopropylpyrimidin-5-yl)-1H-pyrrolo[2,3-b]pyridin-5-yl]-3,4-dimethyl-1H-pyrazole-5-carboxamide] had an IC50 of 0.0001 to 1 µM. The same compound showed a pIC50 in assay [1] above 5.00.

In the case of `O=C(Nc1cnc2[nH]c(I)cc2c1)c1cccc2n[nH]cc12` [P-2288, N-(2-iodo-1H-pyrrolo[2,3-b]pyridin-5-yl)-2H-indazole-4-carboxamide], the IC50 against c-kit mutant D816V was 1 to 10 µM. The pIC50 in assay [1] was above 5.00.

For the compound `Cc1cc(C(=O)Nc2cnc3[nH]c(C#CCF)cc3c2)[nH]n1` [P-2068, N-[2-(3-fluoroprop-1-ynyl)-1H-pyrrolo[2,3-b]pyridin-5-yl]-3-methyl-1H-pyrazole-5-carboxamide], the IC50 against c-kit mutant D816V lay within 1 to 10 µM. Also, in assay [1], the negative-log IC50 (pIC50) was above 5.00.

On c-kit mutant D816V, `Cc1cc(C#N)ccc1-c1cc2cc(NC(=O)c3[nH]nc(C)c3C)cnc2[nH]1` [P-2161, N-[2-(4-cyano-2-methyl-phenyl)-1H-pyrrolo[2,3-b]pyridin-5-yl]-3,4-dimethyl-1H-pyrazole-5-carboxamide] had a concentration for half-maximal inhibition (IC50) of 0.0001 to 1 µM. Besides, in assay [1], the negative-log IC50 (pIC50) was above 5.00.

On to `Cc1n[nH]c(C(=O)Nc2cnc3[nH]c(-c4cc(OC(F)(F)F)ccc4Cl)cc3c2)c1C` [P-2113, N-[2-[2-chloro-5-(trifluoromethoxy)phenyl]-1H-pyrrolo[2,3-b]pyridin-5-yl]-3,4-dimethyl-1H-pyrazole-5-carboxamide], for which the IC50 on c-kit mutant D816V lay within 1 to 10 µM. Further, the pIC50 in assay [1] was above 5.00.

On to `N#CCc1cccc(C(=O)Nc2cnc3[nH]c(-c4ccc(F)cc4)cc3c2)c1` [P-2021, 3-(cyanomethyl)-N-[2-(4-fluorophenyl)-1H-pyrrolo[2,3-b]pyridin-5-yl]benzamide], for which the half-inhibitory concentration (IC50) at c-kit mutant D816V was in the range of 10 to 200 µM.

Turning to `Cc1c(C(F)F)n[nH]c1C(=O)Nc1cnc2[nH]c(-c3ccc(F)cc3)cc2c1` [P-2287, 3-(difluoromethyl)-N-[2-(4-fluorophenyl)-1H-pyrrolo[2,3-b]pyridin-5-yl]-4-methyl-1H-pyrazole-5-carboxamide], at c-kit mutant D816V, the IC50 was 0.0001 to 1 µM. The compound further showed a pIC50 in assay [1] above 5.00.

Consider `Cc1nc(F)ccc1-c1cc2cc(NC(=O)c3[nH]nc(C)c3C)cnc2[nH]1` [P-2283, N-[2-(6-fluoro-2-methyl-3-pyridyl)-1H-pyrrolo[2,3-b]pyridin-5-yl]-3,4-dimethyl-1H-pyrazole-5-carboxamide], for which the IC50 against c-kit mutant D816V lay in the range of 0.0001 to 1 µM. In assay [1], the pIC50 was above 5.00.

Compound `Cc1n[nH]c(C(=O)Nc2cnc3[nH]c(-c4ccc(C#N)c(N5CCCC5)c4)cc3c2)c1C` [P-2120, N-[2-(4-cyano-3-pyrrolidin-1-yl-phenyl)-1H-pyrrolo[2,3-b]pyridin-5-yl]-3,4-dimethyl-1H-pyrazole-5-carboxamide] showed an IC50 at c-kit mutant D816V of 0.0001 to 1 µM. This compound showed a pIC50 in assay [1] above 5.00.

In the case of `CNS(=O)(=O)c1cccc(-c2cc3cc(NC(=O)c4[nH]nc(C)c4C)cnc3[nH]2)c1` [P-2121, 3,4-dimethyl-N-[2-[3-(methylsulfamoyl)phenyl]-1H-pyrrolo[2,3-b]pyridin-5-yl]-1H-pyrazole-5-carboxamide], the 50% inhibitory concentration (IC50) against c-kit mutant D816V lay within 0.0001 to 1 µM. Moreover, the pIC50 in assay [1] is above 5.00.

On to `Cc1n[nH]c(C(=O)Nc2cnc3[nH]c(-c4cc(F)cc(N5CCOCC5)c4)cc3c2)c1C` [P-2078, N-[2-(3-fluoro-5-morpholino-phenyl)-1H-pyrrolo[2,3-b]pyridin-5-yl]-3,4-dimethyl-1H-pyrazole-5-carboxamide], for which the concentration for half-maximal inhibition (IC50) at c-kit mutant D816V was 0.0001 to 1 µM. The same compound gave a pIC50 in assay [1] above 5.00.

For the compound `N#Cc1cccc(C(=O)Nc2cnc3[nH]c(-c4ccc(F)cc4)cc3c2)c1` [P-2025, 3-cyano-N-[2-(4-fluorophenyl)-1H-pyrrolo[2,3-b]pyridin-5-yl]benzamide], on c-kit mutant D816V, the IC50 lay within 10 to 200 µM.

`Cc1onc(C(=O)Nc2cnc3[nH]c(-c4ccccc4)cc3c2)c1C` [P-2017, 4,5-dimethyl-N-(2-phenyl-1H-pyrrolo[2,3-b]pyridin-5-yl)isoxazole-3-carboxamide] displayed a 50% inhibitory concentration (IC50) at c-kit mutant D816V of 10 to 200 µM.

With `O=C(Nc1cnc2[nH]c(-c3ccccc3)cc2c1)c1ccncn1` [P-2011, N-(2-phenyl-1H-pyrrolo[2,3-b]pyridin-5-yl)pyrimidine-4-carboxamide], the half-maximal inhibitory concentration (IC50) at c-kit mutant D816V is 10 to 200 µM.
